Experimental data: article PMC10391911, “Differential effects of two phosphodiesterase 4 inhibitors against lipopolysaccharide-induced neuroinflammation in mice” (BMC Neuroscience, 2023)
Where two headings read alike, the source gives them in different places.

Key:
[1] = In vitro protein-binding assay using equilibrium dialysis, brain homogenate; format: in vitro ADME, mouse
Description: (§1) A rapid equilibrium dialysis device with inserts (cat no. #90,112, Thermo Fisher) was used for the protein-binding assay. […] The samples were incubated for 4 h in a shaking incubator (37℃, 300 rpm). After incubation, 50 µL buffer from the white chamber was added to 50 µL fresh mouse plasma or brain homogenate, and 50 µL dosing solution from the red chamber was added to 50 µL fresh buffer to adjust for matrix effects. To each sample, 200 µL ice-cold acetonitrile with internal standard was added. The samples were centrifuged at 4,000 rpm for 20 min and the supernatants were collected for LC-MS/MS analysis. The unbound fraction of drug (Fu) in plasma and brain tissue was calculated as follows based on previous studies: [drawing 3] [drawing 4]
(§2) where Cprotein-free compartment and Cprotein-containing compartment, D, and dh are the concentrations of drug in the buffer chamber and drug solution chamber, dilution factor, and diluted brain homogenate, respectively.
(§3) The values were calculated using the measured diluted free fractions and the respective dilution factor.

[2] = In vitro protein-binding assay using equilibrium dialysis, plasma; format: in vitro ADME, mouse
Description: as §1, §2, §3

[3] = Brain disposition in mice
Description: Residual blood in the brain was removed from circulation via cardiac perfusion with saline solution.
For both plasma and brain samples, 30 µL each sample was vortexed with 270 µL acetonitrile containing disopyramide as the internal standard for protein precipitation.

[4] = test system: TNF-α, IL-1β, and IL-6 levels in plasma and brain; test: In vivo LPS-induced neuroinflammation mouse model, cytokine ELISA; settings: 10 mg/kg orally once daily for 4 days, LPS 10 mg/kg i.p., samples 8 h after LPS
[5] = in vivo; settings: male, C57BL/6J, mouse; for AUC(0-t): AUClast
Description: Plasma samples were obtained via centrifugation at 15,000 rpm for 3 min and stored at − 20℃ until LC-MS/MS analysis.
The brain-to-plasma ratio (Kp) and unbound Kp (Kp,uu) were calculated as follows: [drawing 5] [drawing 6]
Pharmacokinetic parameters were calculated via non-compartmental analysis using Phoenix WinNonlin, ver. 8.3 (Pharsight, Mountain View, CA, USA).

[6] = test system: TNF-α production in LPS-induced BV-2 cells; test: TNF-α production in LPS-induced BV-2 cells (ELISA); format: cell-based, murine; settings: for Effect on TNF-α levels: up to 10 µM; for IC50: Mus musculus, BV-2, read-out: IC50 against TNF-α
Description: (§4) BV-2 cells were seeded at a density of 5 × 10^5 cells/mL in 96-well plates. […] Finally, 1 µg/mL LPS was added to the cell culture medium for 24 h to induce inflammation.

[7] = test system: NO production in LPS-induced BV-2 cells; test: NO production in LPS-induced BV-2 cells (Griess test); format: cell-based, murine; settings: 1 h pretreatment, LPS 1 µg/mL 24 h; for Effect on NO levels: up to 10 µM
Description: as §4

[8] = Bidirectional MDR1-MDCK monolayer permeability; format: in vitro ADME, canine; settings: dog, MDCK-MDR1; for Papp at 3 µM: both directions, read-out: Apparent permeability coefficients; for Papp A→B at 3 µM / Papp A→B at 10 µM / Papp A→B at 30 µM: read-out: Papp Apical → Basolateral; for Papp B→A at 3 µM / Papp B→A at 10 µM / Papp B→A at 30 µM: read-out: Papp Basolateral → Apical; for Papp A→B: read-out: Papp in the apical-to-basolateral direction
Description: (§5) MDR1-MDCK cells were seeded at a density of 2 × 10^5 cells/well on the apical side of 24-transwell plates with a pore size of 0.4 μm (Corning Costar, Cambridge, MA, USA). Each basolateral chamber was filled with 0.6 mL medium, and each apical side with 0.2 mL medium containing cells. The plates seeded with cells were incubated for 3 days. The culture medium was replaced on both the apical and basolateral sides 2 days after seeding. Before the experiment, the transepithelial electrical resistance was measured using an epithelial voltohmmeter (Millicell ERS-2; Millipore), where 300 ohms or greater was considered to indicate the formation of a cell monolayer with tight junctions. The cells were rinsed twice with pre-warmed Hank’s balanced salt solution (HBSS) containing 10 mM of HEPES and were incubated in a CO2 incubator for 30 min. […] After equilibration, the solutions containing the test or reference compounds were added to either the apical side (0.2 mL) or basolateral side (0.6 mL) of the wells, and the plates were incubated in a shaking incubator (37℃, 200 rpm). Samples were collected every 30 min. To test for apical-to-basolateral flow, 110 µL sample was removed from each basolateral chamber; to test for basolateral-to-apical flow, 110 µL sample was taken from each apical chamber; then, each well was replenished with 110 µL fresh HBSS. To each sample, 50 µL internal standard (5 ng/mL disopyramide) in water was added. Samples were prepared for analysis using solid-phase extraction, and the sample concentrations were analyzed via LC-MS/MS. The permeability of the tested compounds was evaluated by calculating the apparent permeability coefficient (Papp, cm/s) and the efflux ratio (ER). The Papp was calculated as follows: [drawing 1] where dQ/dt is the initial permeability rate of the compound across the cells (ng/s), A is the surface area of the cell monolayer (cm^2), and C0 is the initial concentration of the donor side (ng/mL). From the apical-to-basolateral and basolateral-to-apical Papp values, the ER was calculated as follows: [drawing 2]

[9] = test system: MDR1-MDCK monolayer; test: Bidirectional MDR1-MDCK monolayer permeability; format: in vitro ADME, canine; settings: for P-gp substrate: ER > 2 indicates drug efflux
Description: as §5

[10] = C57BL/6J, mouse, brain, po, 10 mg/kg, 4 h after oral 10 mg/kg, read-out: Concentration, Brain
[11] = C57BL/6J, mouse, brain, po, 10 mg/kg, 4 h after oral 10 mg/kg, read-out: Unbound brain concentration
[12] = C57BL/6J, mouse, brain, po, 10 mg/kg, oral 10 mg/kg, converted from ng/g, read-out: Unbound brain concentration
[13] = C57BL/6J, mouse, plasma, po, 10 mg/kg, 4 h after oral 10 mg/kg, read-out: Concentration, Plasma
[14] = C57BL/6J, mouse, plasma, po, 10 mg/kg, 4 h after oral 10 mg/kg, read-out: Unbound plasma concentration
[15] = 1 h pretreatment, LPS 1 µg/mL 24 h

Compound	concentration at 4 h [3, 10]	concentration at 4 h [3, 11]	concentration at 4 h [3, 12]	concentration at 4 h [3, 13]	concentration at 4 h [3, 14]	Effect on TNF-α, IL-1β, and IL-6 levels in plasma and brain [4]	bioavailability [5]	AUC(0-inf) ([5]; iv, 1 mg/kg)	clearance ([5]; iv, 1 mg/kg)	half-life ([5]; iv, 1 mg/kg)	AUC(0-t) ([5]; iv, 1 mg/kg)	AUC(0-inf) ([5]; po, 10 mg/kg)	Cmax ([5]; po, 10 mg/kg)	Tmax ([5]; po, 10 mg/kg)	half-life ([5]; po, 10 mg/kg)	AUC(0-t) ([5]; po, 10 mg/kg)	Effect on TNF-α levels [6, 15]	Effect on NO levels [7]	Papp at 3 µM ([8]; 3 µM)	Papp A→B at 3 µM ([8]; 3 µM)	also measured
O=C(Nc1c(Cl)cncc1Cl)c1ccc(OC(F)F)c(OCC2CC2)c1 [roflumilast]	18.2 ± 12.9 ng/g	0.07 ng/g	0.17 nM	30.6 ± 14.2 ng/mL	0.39 ng/mL	reduced	2.3%	5070 ± 1100 ng·h/mL	3.33 mL/min/kg	3.74 ± 0.71 h	4890 ± 940 ng·h/mL	1290 ± 540 ng·h/mL	150 ± 70 ng/mL	2.33 ± 1.53 h	7.13 ± 2.86 h	1130 ± 540 ng·h/mL	dose-dependent decrease	dose-dependent decrease	> 23 ×10⁻⁶ cm/s	25.1 ± 1.28 ×10⁻⁶ cm/s	fraction unbound at 4 h, 5 µM ([1]; mouse, brain homogenate): 0.0037 ± 0.002; fraction unbound at 4 h, 5 µM ([2]; mouse, plasma): 0.0126 ± 0.0058; IC50 [6, 15]: 12.2 nM; IC50 ([6]; converted from nM): 4.9 ng/mL; IC50 ([7]; Mus musculus, BV-2, read-out: IC50 against NO): 312 nM; Papp B→A at 3 µM ([8]; 3 µM): 23.9 ± 3.61 ×10⁻⁶ cm/s; Papp A→B at 10 µM ([8]; 10 µM): 44.5 ± 2.53 ×10⁻⁶ cm/s; Papp B→A at 10 µM ([8]; 10 µM): 40.8 ± 6.48 ×10⁻⁶ cm/s; Papp A→B at 30 µM ([8]; 30 µM): 113 ± 5.7 ×10⁻⁶ cm/s; Papp B→A at 30 µM ([8]; 30 µM): 72.2 ± 6.32 ×10⁻⁶ cm/s; Papp A→B ([8]; over 3, 10, and 30 µM): > 25 ×10⁻⁶ cm/s; Permeability class according to FDA guidelines [9]: high; P-gp substrate [9]: not P-gp substrates
O=C(O)Cc1ccc(Cc2cc(-c3cccc(Cl)c3)nc(C(F)(F)F)c2)cc1 [zatolmilast]	1200 ± 345 ng/g	1.7 ng/g	4.2 nM	3630 ± 890 ng/mL	9.57 ng/mL	did not reduce	3.7%	86900 ± 10900 ng·h/mL	0.167 mL/min/kg	6.35 ± 0.62 h	81900 ng·h/mL	62000 ± 31800 ng·h/mL	2530 ± 860 ng/mL	2 ± 1.73 h	20.4 ± 6.77 h	30300 ± 9640 ng·h/mL	did not have this effect	did not have this effect	3.72 to 7.18 ×10⁻⁶ cm/s	3.72 ± 0.33 ×10⁻⁶ cm/s	fraction unbound at 4 h, 5 µM ([1]; mouse blank brain homogenate, 5 µM, mouse brain homogenate, 4 h dialysis, read-out: Fu, Brain): 0.0014 ± 0.0002; fraction unbound at 4 h, 5 µM ([2]; pooled mouse plasma, 5 µM, mouse plasma, 4 h dialysis, read-out: Fu, Plasma): 0.0026 ± 0.0001; Brain Kp,uu ([3]; 4 h after oral 10 mg/kg, 10 mg/kg): 0.18; Kp at 4 h ([3]; C57BL/6J, mouse, brain and plasma, 4 h after oral 10 mg/kg): 0.33; Kp uu at 4 h ([3]; C57BL/6J, mouse, brain and plasma, po, 10 mg/kg, 4 h after oral 10 mg/kg): < 0.18; Vd ([5]; iv, 1 mg/kg): 0.07 ± 0.01 L/kg; efflux ratio at 3 µM ([8]; 3 µM, read-out: ER): 1.92; Papp B→A at 3 µM ([8]; 3 µM): 7.18 ± 1.53 ×10⁻⁶ cm/s; efflux ratio at 10 µM ([8]; 10 µM, read-out: ER): 1.89; Papp A→B at 10 µM ([8]; 10 µM): 9.59 ± 0.84 ×10⁻⁶ cm/s; Papp B→A at 10 µM ([8]; 10 µM): 18 ± 1.37 ×10⁻⁶ cm/s; efflux ratio at 30 µM ([8]; 30 µM, read-out: ER): 1.81; Papp A→B at 30 µM ([8]; 30 µM): 70.3 ± 9.58 ×10⁻⁶ cm/s; Papp B→A at 30 µM ([8]; 30 µM): 126 ± 8.39 ×10⁻⁶ cm/s; efflux ratio ([8]; over 3, 10, and 30 µM, read-out: Efflux ratios (ERs)): < 1.92; Papp A→B ([8]; over 3, 10, and 30 µM): > 3.7 ×10⁻⁶ cm/s; Permeability class according to FDA guidelines [9]: moderately high; P-gp substrate [9]: not P-gp substrates; Efflux ratios (ERs) ([9]; over 3, 10, and 30 µM): < 2.0
